Assay results published in patent publication US20220195666A1, “USE OF A PLURALITY OF SALT IONIC LIQUIDS IN THE PRETREATMENT OF BIOMASS” (priority 2020, published 2022).

Experiment: Thermal gravimetric analysis of the ILs and DSILs
Format: physicochemical
Details: TGA under nitrogen, 10° C./min
Description: Thermal behavior was determined using a Mettler Toledo Stare TGA/DSC1 unit (Mettler Toledo, Leicester, UK) under nitrogen. Samples between 3 and 10 mg were placed in alumina crucibles (70 μL) and heated from room temperature to 75° C. at a heating rate of 10° C./min. An isotherm at 75° C. was maintained for 30 min to eliminate all volatiles, if any. After the isothermal step, the temperature was ramped to 800° C. at a heating rate of 10° C./min. The data was analyzed using STARe Evaluation software.

T5% (decomposition temperature of 5% sample) [°C] | T50% (decomposition temperature of 50% sample) [°C] | SMILES
173.1 | 211.4 | CC(=O)[O-].C[N+](C)(C)CCO [[Ch][Ace], cholinium acetate]
155.9 | 218.1 | C[N+](C)(C)CCO.NCCCC[C@H](N)C(=O)[O-] [[Ch][Lys], cholinium lysinate]
180.7 | 209.5 | CCCCCCCC(=O)[O-].C[N+](C)(C)CCO [[Ch][Oct], cholinium octanoate]
177.7 | 225.3 | CCCCCCCCCCCCCCCC(=O)[O-].C[N+](C)(C)CCO [[Ch][Pal], cholinium palmitate]
